Measurements from patent US10253002B2, “Compounds and methods of treating infections” (Neoculi Pty Ltd., priority 2013, dated 2019).
Where “and” joins values, the source holds several entries; their conditions need not be identical. Equal values may be shown once.

What was measured:
[1] = test system: S. aureus isolates (HA-MRSA, CA-MRSA, methicillin-susceptible staphylococci); test: Kirby-Bauer disc diffusion resistotyping, Example 4; assay type: cell-based, Staphylococcus aureus; conditions: for Total isolates resistant (Kirby-Bauer disc diffusion): all isolates (n = 30)
Method: Antibiotic-susceptibility profiling of the isolate collection was undertaken using Kirby-Bauer disc diffusion, as recommended by the Clinical and Laboratory Standards Institute (CLSI) on Mueller-Hinton agar. Isolates were grown overnight on SBA at 37° C. Colonies were suspended in physiological saline. Turbidity was adjusted to a 0.5 McFarland standard and suspensions were spread over the medium. Antibiotic discs according to Table 9 below were transferred onto the inoculated medium and analysed after 24 h incubation at 37° C.

[2] = test system: Staphylococcus pseudintermedius isolates (MSSP and MRSP); test: Disk diffusion and Epsilometer susceptibility testing, Example 6; assay type: cell-based
S. pneumoniae isolates = test: Disk diffusion susceptibility (CLSI/EUCAST), Example 5; assay type: cell-based, Streptococcus pneumoniae
Method: Isolate susceptibility to 12 different antimicrobials (Table 16) was determined by CLSI and European Committee on Antimicrobial Susceptibility Testing (EUCAST) methods. Antimicrobials were selected based upon the CLSI and EUCAST guidelines. Standardised bacterial suspensions were spread onto MHSBA using a sterile cotton swab. Bacterial suspensions from of Streptococcus pneumoniae were standardised to an OD6O0 between 0.08 and 0.1 using a spectrophotometer and then diluted 1:20. Bacterial colonies were taken from an O/N horse blood agar plate. To ensure the purity of the 1:20 bacterial suspension, 50 μL was spread plated onto horse blood agar and incubated O/N at 37° C. with 5% CO2. The CFU was calculated and compared to the initial plate counts. Antibiotic disks (Purchased from Sigma Aldrich) were placed using a disk dispenser (Purchased from Oxoid) according to CLSI standards. MHSBA plates were incubated for 16 h-24 h at 37° C. in 5% CO2. Zones of complete inhibition were measured in triplicate to the nearest millimeter using a ruler on natural light-reflected growth, and the mode was represented as the diameter for each isolate. Pneumococcal isolates were categorised as sensitive, intermediate (I) or resistant (R) by CLSI standards and quality control (QC) ranges (Table 16).

[3] = Methicillin-susceptible staphylococci (n = 10)

CO[C@@]1(NC(=O)C2SC(=C(C(N)=O)C(=O)O)S2)C(=O)N2C(C(=O)O)=C(CSc3nnnn3C)CS[C@@H]21 (stereo partly shown) [Cefotetan]
isolates resistant (Kirby-Bauer disc diffusion) ([1]; CA-MRSA (n = 10)): 20.00%
isolates resistant (Kirby-Bauer disc diffusion) ([1]; HA-MRSA (n = 10)): 80.00%
isolates resistant (Kirby-Bauer disc diffusion) [1, 3]: 0.00%
resistant isolates, number (percentage) ([1]; Unclassified (n = 2), Overall): 2 (100%)
Total isolates resistant (Kirby-Bauer disc diffusion) [1]: 33.33%
resistant isolates, number (percentage) ([1]; mec gene complex A (n = 4), Overall): 4 (100%)
resistant isolates, number (percentage) ([1]; mec gene complex A (n = 4), SCCmec type II): 3 (100%)
resistant isolates, number (percentage) ([1]; mec gene complex A (n = 4), SCCmec type III): 1 (100%)
resistant isolates, number (percentage) ([1]; mec gene complex B (n = 10), Overall): 2 (20%)
resistant isolates, number (percentage) ([1]; mec gene complex B (n = 10), SCCmec type I): 1 (50%)
resistant isolates, number (percentage) ([1]; mec gene complex B (n = 10), SCCmec type IV): 1 (12.5%)
resistant isolates, number (percentage) ([1]; mec gene complex C2 (n = 4), Overall): 2 (50%)
resistant isolates, number (percentage) ([1]; mec gene complex C2 (n = 4), SCCmec type V): 2 (50%)
MRSP isolates susceptible ([2]; 13 MRSP isolates): 92%

CC1=C(C(=O)O)N2C(=O)[C@@H](NC(=O)[C@H](N)c3ccccc3)[C@H]2SC1 [Cephalexin]
isolates resistant (Kirby-Bauer disc diffusion) ([1]; CA-MRSA (n = 10)): 20.00%
isolates resistant (Kirby-Bauer disc diffusion) ([1]; HA-MRSA (n = 10)): 80.00%
isolates resistant (Kirby-Bauer disc diffusion) [1, 3]: 10.00%
Total isolates resistant (Kirby-Bauer disc diffusion) [1]: 40.00%

CCC[C@@H]1C[C@@H](C(=O)N[C@@H]([C@H]2O[C@H](SC)[C@H](O)[C@@H](O)[C@H]2O)[C@H](C)Cl)N(C)C1 [Clindamycin]
disk diffusion zone diameter (S. pneumoniae isolates; A66.1): 34 mm
disk diffusion zone diameter (S. pneumoniae isolates; D39): 27 mm
disk diffusion zone diameter (S. pneumoniae isolates; EF3030): 26 mm
disk diffusion zone diameter (S. pneumoniae isolates; L82016): 32 mm
disk diffusion zone diameter (S. pneumoniae isolates; P9): 31 mm
disk diffusion zone diameter (S. pneumoniae isolates; P21): 25 mm
disk diffusion zone diameter (S. pneumoniae isolates; TIGR4): 28 mm
disk diffusion zone diameter (S. pneumoniae isolates; WCH16): 28 mm
disk diffusion zone diameter (S. pneumoniae isolates; WCH43): 22 mm
disk diffusion zone diameter (S. pneumoniae isolates; WCH46): 30 mm
disk diffusion zone diameter (S. pneumoniae isolates; WCH57): 34 mm
disk diffusion zone diameter (S. pneumoniae isolates; WCH77): 28 mm
disk diffusion zone diameter (S. pneumoniae isolates; WCH86): 30 mm
disk diffusion zone diameter (S. pneumoniae isolates; WCH89): 27 mm
disk diffusion zone diameter (S. pneumoniae isolates; WCH92): 24 mm
disk diffusion zone diameter (S. pneumoniae isolates; WCH137): 26 mm
disk diffusion zone diameter (S. pneumoniae isolates; WCH158): 32 mm
disk diffusion zone diameter (S. pneumoniae isolates; WCH184): 10 mm
disk diffusion susceptibility category (S. pneumoniae isolates; WCH184 (Table 18)): R
disk diffusion zone diameter (S. pneumoniae isolates; WCH211): 27 mm
disk diffusion zone diameter (S. pneumoniae isolates; WU2): 27 mm
isolates resistant (Kirby-Bauer disc diffusion) ([1]; CA-MRSA (n = 10)): 50.00%
isolates resistant (Kirby-Bauer disc diffusion) ([1]; HA-MRSA (n = 10)): 50.00%
isolates resistant (Kirby-Bauer disc diffusion) [1, 3]: 30.00%
Total isolates resistant (Kirby-Bauer disc diffusion) [1]: 43.33%
Total isolates resistant (Kirby-Bauer disc diffusion) ([1]; listed as clindamycin): 43.33%

CC1(C)S[C@@H]2[C@H](NC(=O)Cc3ccccc3)C(=O)N2[C@H]1C(=O)O [Penicillin-G]
isolates resistant (Kirby-Bauer disc diffusion) ([1]; CA-MRSA (n = 10)): 100.00%
isolates resistant (Kirby-Bauer disc diffusion) ([1]; HA-MRSA (n = 10)): 100.00%
isolates resistant (Kirby-Bauer disc diffusion) [1, 3]: 50.00%
Total isolates resistant (Kirby-Bauer disc diffusion) [1]: 83.33%
Total isolates resistant (Kirby-Bauer disc diffusion) ([1]; listed as penicillin-G): 83.33%

CO[C@H]1/C=C/O[C@@]2(C)Oc3c(C)c(O)c4c(O)c(c(/C=N/N5CCN(C)CC5)c(O)c4c3C2=O)NC(=O)/C(C)=C\C=C\[C@H](C)[C@H](O)[C@@H](C)[C@@H](O)[C@@H](C)[C@H](OC(C)=O)[C@@H]1C [Rifampicin]
disk diffusion zone diameter (S. pneumoniae isolates; A66.1): 32 mm
disk diffusion zone diameter (S. pneumoniae isolates; D39): 28 mm
disk diffusion zone diameter (S. pneumoniae isolates; EF3030): 32 mm
disk diffusion zone diameter (S. pneumoniae isolates; L82016): 26 mm
disk diffusion zone diameter (S. pneumoniae isolates; P9): 27 mm
disk diffusion zone diameter (S. pneumoniae isolates; P21): 32 mm
disk diffusion zone diameter (S. pneumoniae isolates; TIGR4): 30 mm
disk diffusion zone diameter (S. pneumoniae isolates; WCH16): 30 mm
disk diffusion zone diameter (S. pneumoniae isolates; WCH43): 27 mm
disk diffusion zone diameter (S. pneumoniae isolates; WCH46): 29 mm
disk diffusion zone diameter (S. pneumoniae isolates; WCH57): 38 mm
disk diffusion zone diameter (S. pneumoniae isolates; WCH77): 33 mm
disk diffusion zone diameter (S. pneumoniae isolates; WCH86): 31 mm
disk diffusion zone diameter (S. pneumoniae isolates; WCH89): 32 mm
disk diffusion zone diameter (S. pneumoniae isolates; WCH92): 22 mm
disk diffusion zone diameter (S. pneumoniae isolates; WCH137): 30 mm
disk diffusion zone diameter (S. pneumoniae isolates; WCH158): 34 mm
disk diffusion zone diameter (S. pneumoniae isolates; WCH184): 32 mm
disk diffusion zone diameter (S. pneumoniae isolates; WCH211): 32 mm
disk diffusion zone diameter (S. pneumoniae isolates; WU2): 31 mm
isolates resistant (Kirby-Bauer disc diffusion) ([1]; CA-MRSA (n = 10)): 0.00%
isolates resistant (Kirby-Bauer disc diffusion) ([1]; HA-MRSA (n = 10)): 10.00%
isolates resistant (Kirby-Bauer disc diffusion) [1, 3]: 0.00%
Total isolates resistant (Kirby-Bauer disc diffusion) [1]: 3.33%
Total isolates resistant (Kirby-Bauer disc diffusion) ([1]; listed as rifampicin): 3.33%

CO[C@@]1(NC(=O)Cc2cccs2)C(=O)N2C(C(=O)O)=C(COC(N)=O)CS[C@@H]21 [cefoxitin]
MRSP isolates susceptible ([2]; 13 MRSP, cefoxitin resistance break point set at ≤30 mm): 7.7%
MRSP isolates susceptible ([2]; 13 MRSP, cefoxitin resistance breakpoint set at ≤24 mm): 23% and 38%
ZD ([2]; isolate S1P1): 0 mm
ZD, Adl ([2]; isolate S1P1): 0 mm
ZD ([2]; isolate S2P2): 21 mm
ZD, Adl ([2]; isolate S2P2): 21 mm
ZD ([2]; isolate S3P3): 21 mm
ZD, Adl ([2]; isolate S3P3): 24 mm
ZD ([2]; isolate S4P4): 29 mm
ZD, Adl ([2]; isolate S4P4): 20 mm
ZD ([2]; isolate S5P5): 26 mm
ZD, Adl ([2]; isolate S5P5): 30 mm
ZD ([2]; isolate S6P6): 22 mm
ZD, Adl ([2]; isolate S6P6): 26 mm
ZD ([2]; isolate S7P7): 21 mm
ZD, Adl ([2]; isolate S7P7): 19 mm
ZD ([2]; isolate S8P8): 21 mm
ZD, Adl ([2]; isolate S8P8): 22 mm
ZD ([2]; isolate S9P9): 23 mm
ZD, Adl ([2]; isolate S9P9): 26 mm
ZD ([2]; isolate S10P10): 21 mm
ZD, Adl ([2]; isolate S10P10): 25 mm
ZD ([2]; isolate S11P11): 22 mm
ZD, Adl ([2]; isolate S11P11): 21 mm
ZD ([2]; isolate S12P12): 24 mm
ZD, Adl ([2]; isolate S12P12): 24 mm
ZD ([2]; isolate S13P13): 36 mm
ZD, Adl ([2]; isolate S13P13): 40 mm
ZD ([2]; isolate S14P14): 34 mm
ZD, Adl ([2]; isolate S14P14): 32 mm
ZD ([2]; isolate S15P15): 33 mm
ZD, Adl ([2]; isolate S15P15): 34 mm
ZD ([2]; isolate S16P16): 38 mm
ZD, Adl ([2]; isolate S16P16): 42 mm
ZD ([2]; isolate S17P17): 36 mm
ZD, Adl ([2]; isolate S17P17): 38 mm
ZD ([2]; isolate S18P18): 25 mm
ZD, Adl ([2]; isolate S18P18): 40 mm
ZD ([2]; isolate S19P19): 36 mm
ZD, Adl ([2]; isolate S19P19): 38 mm
ZD ([2]; isolate S20P20): 38 mm
ZD, Adl ([2]; isolate S20P20): 36 mm
ZD ([2]; isolate S21P21): 36 mm
ZD, Adl ([2]; isolate S21P21): 40 mm
ZD ([2]; isolate S22P22): 34 mm
ZD, Adl ([2]; isolate S22P22): 35 mm
ZD ([2]; isolate S23P23): 29 mm
ZD, Adl ([2]; isolate S23P23): 26 mm

CC(=O)OCC1=C(C(=O)O)N2C(=O)[C@@H](NC(=O)Cc3cccs3)[C@H]2SC1 [cephalothin]
MRSP isolates susceptible ([2]; 13 MRSP isolates): 62%

COc1c(N2C[C@@H]3CCCN[C@@H]3C2)c(F)cc2c(=O)c(C(=O)O)cn(C3CC3)c12 [moxifloxacin]
MRSP isolates susceptible ([2]; 13 MRSP isolates): 92%
